Experimental data taken from patent publication US20260240846A1, “ZAK ALPHA KINASE (MAP3K20) INHIBITORS FOR USE IN THE TREATMENT OF ANEMIA” (UNIVERSIDAD DE MURCIA, priority 2023, published 2026).

System: RPS19-deficient CD34+ cells
Test: Human RPS19-edited model of DBA: erythroid differentiation with EPO
Type: cell-based
Settings: EPO 13 days, 0.1 μM nilotinib (FIGS. 14A-14C)
Method: FIG. 14. Nilotinib promotes erythropoiesis in a human RPS19-edited model of DBA. RPS19 gene was edited in primary human CD34^+/CD133^+ cells with CRISPR-Cas9 technology and the cells were then differentiated with EPO for 13 days in the presence of absence of 0.1 μM nilotinib. (A) Representative flow cytometry dot plots of CD235-APC vs. CD71-FITC from control and RPS19-edited cells at 13 days of differentiation with EPO. (B) Cell surface expression of CD235A from control (mock) and RPS19-deficient cells treated with DMSO or nilotinib. (C) Percentage of mature erythrocytes (CD71^−/CD235A^+) vs. percentage of erythroid progenitors (CD71^+/CD235A^−) in RPS19-deficient cells treated with DMSO or 0.1 μM nilotinib. (D) CASP1 activity of control and RPS19-deficient cells treated with DMSO or 0.1 μM nilotinib. MFI, mean fluorescence intensity.

Cc1cn(-c2cc(NC(=O)c3ccc(C)c(Nc4nccc(-c5cccnc5)n4)c3)cc(C(F)(F)F)c2)cn1 [nilotinib]
defective erythropoiesis of RPS19-deficient CD34+ cells: rescued defective erythropoiesis
